A short description of data set [1]: Liver microsomes stability assay, human. It is filed as in vitro ADME. The method, then: page 31: using a REMS Autosampler (World Precision Instruments, Sarasota, […]1 cells were grown for 5 days to reach a consistent confluency level monitored by epithelial voltohmmeter to confirm the intactness of the confluent polarized monolayer. For transport experiments, each cultured monolayer on the 96-well plate was washed twice with a transport buffer (HBSS/25 mM […] The cell-based permeability assay was initiated by the addition of each compound solution (10 μmol/L) into inserts (apical side, A) or receivers (basolateral side, B). After incubated […] (if basal to apical permeability), and concentrations were assessed by UPLC/MS (Waters; Milford, MA). All compounds were tested in triplicates. The A→B (or B→A) apparent permeability coefficients (Papp) of each compound were calculated using the equation (3): […], where dQ/dt equals the flux of a drug across the monolayer, the parameters of A equals the surface area of total insert well, and C0 is the initial concentration of substrate in the donor compartment. The efflux ratio was determined by dividing the Papp in the B-A direction by the Papp in the A-B direction. […] NADPH regenerating agent solutions A and B (Corning GentestTM, Cat. No: 451220) were purchased from Discovery Labware (Woburn, MA). Mouse liver microsomes (CD-1, pooled, GibcoTM, Cat. No: MSMCPL) were obtained from Thermo Fisher Scientific (Fredrick, MD). Pooled human liver microsomes (mixed gender, Cat. No: E0630) were purchased from XenoTech (Lenexa, KS). Stock solutions of test compounds were prepared at 10 mM in DMSO. Sample preparation for microsomal stability was modified from Di's publications3,4. […] and 4 hours) by Labcyte Echo 650 acoustic dispenser (Beckman Coulter Life Sciences, Indianapolis, IN). All compounds were tested in triplicate per time point. […] Plasma stability assay5: The degradation of human or mouse plasma was assessed by monitoring the gradual reduction of the parent compound over specified time intervals (0, 3, 24, and 48 hours). […]

In another data set the test system is MOLM-13 cells. Description: Lenalidomide competition assay (40 μM lenalidomide), MOLM-13 viability. The format is cell-based, human. The note with it: lenalidomide 40 μM. As for the experimental part: Having identified SJ7095 as a compound with a potent antiproliferative effect in MOLM-13 cells, we next examined whether the observed effect was CRBN-dependent. […] In an orthogonal approach, we tested SJ7095 in wild-type and CRBN-knockout MOLM-13 cells in a cell viability assay (Supplementary Fig. 1b).
MOLM-13 cells were plated in Corning 8804BC white 384-well assay plates at the appropriate cell number per well and incubated overnight at 37 °C in a humidified 5 % CO2 incubator. Compounds were transferred to the assay plate from a dose-response plate using a Labcyte Echo 650 Acoustic Liquid Handler (Beckman Coulter , USA). Cytotoxicity was determined following 72 h of incubation using Promega’s CellTiter-Glo reagent according to the manufacturer’s recommendation.
Luminescence was measured on the Envision plate reader (PerkinElmer, USA). Raw luminescence relative light unit (RLU) values for each compound at each concentration were normalized to obtain % activity using the following equation (1): 100 × [(mean(negctrl) – compound)/(mean (negctrl) – mean (posctrl))]. The % activity was converted to % viability using the following equation (2):
(100 – % activity), and then pooled from replicate experiments prior to fitting. Here, negctrl and posctrl refer to the negative (DMSO) and positive controls (staurosporine) on each plate. […]

In the case of `O=C1CCC(N2Cc3cc(Nc4noc5ccccc45)ccc3C2=O)C(=O)N1` (stereo not shown) [SJ3149], in data set [1] (both sexes, human, liver microsomes, pH 7.4, read-out: Microsome stability t1/2), the half-life at 10 µM is more than 10 h.

For the compound `O=C1CCC(N2Cc3c(CNC(=O)c4ccc(F)cc4)cccc3C2=O)C(=O)N1` (stereo not shown) [SJ7095], the “Antiproliferative effect in presence of excess lenalidomide” value with MOLM-13 cells is given as “abrogating the antiproliferative effects”.

In the case of `O=C1CCC(N2Cc3cc(Nc4noc5ccccc45)ccc3C2=O)C(=O)N1` (stereo not shown) [SJ001043149-1], in data set [1], the Ke is -0.00692 and the “t(1/2)” value is reported as -100.22.

Values taken from publication PMC10791743, “Selective CK1α degraders exert antiproliferative activity against a broad range of human cancer cell lines” (Nature Communications, 2024).
